{"source": "ChEMBL document CHEMBL1132181", "about": "“Prodrugs for amidines: synthesis and anti-Pneumocystis carinii activity of carbamates of 2,5-bis(4-amidinophenyl)furan” (J Med Chem, 1999)", "key": {"Rattus norvegicus [1]": {"system": "Rattus norvegicus", "assay": "Toxicity is evaluated according to a five-level scale ranging from 0 to 5+ at the specified iv dose of 22.0 (umol/kg/day)", "format": "organism-based", "conditions": "in vivo"}, "Rattus norvegicus [2]": {"system": "Rattus norvegicus", "assay": "Toxicity is evaluated according to a five-level scale ranging from 0 to 5+ at the specified oral dose of 33.0 (umol/kg/day)", "format": "organism-based", "conditions": "in vivo"}, "Pneumocystis carinii [3]": {"system": "Pneumocystis carinii", "assay": "The compound was tested in vivo against Pneumocystis carinii pneumonia (PCP) in the immunosuppressed rat model at iv dose of 22.0 (umol/kg/day)", "format": "functional"}, "Pneumocystis carinii [4]": {"system": "Pneumocystis carinii", "assay": "The compound was tested in vivo against Pneumocystis carinii pneumonia (PCP) in the immunosuppressed rat model at oral dose of 33.0(umol/kg/day)", "format": "functional"}, "Rattus norvegicus [5]": {"system": "Rattus norvegicus", "assay": "Toxicity is evaluated according to a five-level scale ranging from 0 to 5+ at the specified iv dose of 11.0 (umol/kg/day)", "format": "organism-based", "conditions": "in vivo"}, "Pneumocystis carinii [6]": {"system": "Pneumocystis carinii", "assay": "The compound was tested in vivo against Pneumocystis carinii pneumonia (PCP) in the immunosuppressed rat model at iv dose of 11.3(umol/kg/day)", "format": "functional"}, "Pneumocystis carinii [7]": {"system": "Pneumocystis carinii", "assay": "The compound was tested in vivo against Pneumocystis carinii pneumonia (PCP) in the immunosuppressed rat model at iv dose of 11.0 (umol/kg/day)", "format": "functional"}, "Rattus norvegicus [8]": {"system": "Rattus norvegicus", "assay": "Toxicity is evaluated according to a five-level scale ranging from 0 to 5+ at the specified iv dose of 34.7 (umol/kg/day)", "format": "organism-based", "conditions": "in vivo"}, "Pneumocystis carinii [9]": {"system": "Pneumocystis carinii", "assay": "The compound was tested in vivo against Pneumocystis carinii pneumonia (PCP) in the immunosuppressed rat model at iv dose of 34.7 (umol/kg/day)", "format": "functional"}, "Pneumocystis carinii [10]": {"system": "Pneumocystis carinii", "assay": "The compound was tested in vivo against Pneumocystis carinii pneumonia (PCP) in the immunosuppressed rat model at oral dose of 39.8(umol/kg/day)", "format": "functional"}, "Rattus norvegicus [11]": {"system": "Rattus norvegicus", "assay": "Toxicity is evaluated according to a five-level scale ranging from 0 to 5+ at the specified iv dose of 13.3 (umol/kg/day)", "format": "organism-based", "conditions": "in vivo"}, "Pneumocystis carinii [12]": {"system": "Pneumocystis carinii", "assay": "The compound was tested in vivo against Pneumocystis carinii pneumonia (PCP) in the immunosuppressed rat model at iv dose of 13.3 (umol/kg/day)", "format": "functional"}, "Rattus norvegicus [13]": {"system": "Rattus norvegicus", "assay": "Toxicity is evaluated according to a five-level scale ranging from 0 to 5+ at the specified oral dose of 39.8 (umol/kg/day)", "format": "organism-based", "conditions": "in vivo"}}, "data": [{"smiles": "COc1ccc(OC(=O)NC(=N)c2ccc(-c3ccc(-c4ccc(C(=N)NC(=O)Oc5ccc(OC)cc5)cc4)o3)cc2)cc1", "values": [{"measurement": "Toxicity", "setting": "Rattus norvegicus [1]", "result": 0}, {"measurement": "Toxicity", "setting": "Rattus norvegicus [2]", "result": 0}, {"measurement": "Control", "setting": "Pneumocystis carinii [3]", "result": 0.02, "unit": "%"}, {"measurement": "Control", "setting": "Pneumocystis carinii [4]", "result": 2.1, "unit": "%"}]}, {"smiles": "N=C(NC(=O)OCc1ccccc1)c1ccc(-c2ccc(-c3ccc(C(=N)NC(=O)OCc4ccccc4)cc3)o2)cc1", "values": [{"measurement": "Toxicity", "setting": "Rattus norvegicus [5]", "result": 0}, {"measurement": "Toxicity", "setting": "Rattus norvegicus [2]", "result": 0}, {"measurement": "Control", "setting": "Pneumocystis carinii [4]", "result": 18.09, "unit": "%"}, {"measurement": "Control", "setting": "Pneumocystis carinii [6]", "result": 0.03, "unit": "%"}]}, {"smiles": "COC(=O)NC(=N)c1ccc(-c2ccc(-c3ccc(C(=N)NC(=O)OC)cc3)o2)cc1", "values": [{"measurement": "Toxicity", "setting": "Rattus norvegicus [1]", "result": 0}, {"measurement": "Toxicity", "setting": "Rattus norvegicus [2]", "result": 0}, {"measurement": "Control", "setting": "Pneumocystis carinii [3]", "result": 6.91, "unit": "%"}, {"measurement": "Control", "setting": "Pneumocystis carinii [4]", "result": 49.68, "unit": "%"}]}, {"smiles": "CCSC(=O)NC(=N)c1ccc(-c2ccc(-c3ccc(C(=N)NC(=O)SCC)cc3)o2)cc1", "values": [{"measurement": "Toxicity", "setting": "Rattus norvegicus [1]", "result": 0}, {"measurement": "Toxicity", "setting": "Rattus norvegicus [2]", "result": 0}, {"measurement": "Control", "setting": "Pneumocystis carinii [3]", "result": 83.01, "unit": "%"}, {"measurement": "Control", "setting": "Pneumocystis carinii [4]", "result": 19.52, "unit": "%"}]}, {"smiles": "CC(=O)OC(C)OC(=O)NC(=N)c1ccc(-c2ccc(-c3ccc(C(=N)NC(=O)OC(C)OC(C)=O)cc3)o2)cc1", "note": "(centres undefined)", "values": [{"measurement": "Control", "setting": "Pneumocystis carinii [7]", "result": 1.21, "unit": "%"}, {"measurement": "Toxicity", "setting": "Rattus norvegicus [2]", "result": 0}, {"measurement": "Control", "setting": "Pneumocystis carinii [4]", "result": 57.16, "unit": "%"}]}, {"smiles": "N=C(NC(=O)Oc1ccc(F)cc1)c1ccc(-c2ccc(-c3ccc(C(=N)NC(=O)Oc4ccc(F)cc4)cc3)o2)cc1", "values": [{"measurement": "Toxicity", "setting": "Rattus norvegicus [1]", "result": 0}, {"measurement": "Toxicity", "setting": "Rattus norvegicus [2]", "result": 0}, {"measurement": "Control", "setting": "Pneumocystis carinii [3]", "result": 0.02, "unit": "%"}, {"measurement": "Control", "setting": "Pneumocystis carinii [4]", "result": 2.21, "unit": "%"}]}, {"smiles": "N=C(NC(=O)Oc1ccccc1)c1ccc(-c2ccc(-c3ccc(C(=N)NC(=O)Oc4ccccc4)cc3)o2)cc1", "values": [{"measurement": "Toxicity", "setting": "Rattus norvegicus [1]", "result": 0}, {"measurement": "Toxicity", "setting": "Rattus norvegicus [2]", "result": 0}, {"measurement": "Control", "setting": "Pneumocystis carinii [3]", "result": 3.61, "unit": "%"}, {"measurement": "Control", "setting": "Pneumocystis carinii [4]", "result": 5.7, "unit": "%"}]}, {"smiles": "N/C(=N\\C(=O)OCC(Cl)(Cl)Cl)c1ccc(-c2ccc(-c3ccc(/C(N)=N\\C(=O)OCC(Cl)(Cl)Cl)cc3)o2)cc1", "values": [{"measurement": "Toxicity", "setting": "Rattus norvegicus [1]", "result": 0}, {"measurement": "Toxicity", "setting": "Rattus norvegicus [2]", "result": 0}, {"measurement": "Control", "setting": "Pneumocystis carinii [3]", "result": 1.85, "unit": "%"}, {"measurement": "Control", "setting": "Pneumocystis carinii [4]", "result": 8.59, "unit": "%"}]}, {"smiles": "CCOC(=O)ONC(=N)c1ccc(-c2ccc(-c3ccc(C(=N)NOC(=O)OCC)cc3)o2)cc1", "values": [{"measurement": "Toxicity", "setting": "Rattus norvegicus [8]", "result": 0}, {"measurement": "Toxicity", "setting": "Rattus norvegicus [2]", "result": 0}, {"measurement": "Control", "setting": "Pneumocystis carinii [9]", "result": 1.66, "unit": "%"}, {"measurement": "Control", "setting": "Pneumocystis carinii [4]", "result": 96.9, "unit": "%"}]}, {"smiles": "N=C(N)c1ccc(OCCCCCOc2ccc(C(=N)N)cc2)cc1", "note": "[PENTAMIDINE]", "values": [{"measurement": "Control", "setting": "Pneumocystis carinii [3]", "result": 3.06, "unit": "%"}]}, {"smiles": "N=C(N)c1ccc(-c2ccc(-c3ccc(C(=N)N)cc3)o2)cc1", "note": "[FURAMIDINE]", "values": [{"measurement": "Control", "setting": "Pneumocystis carinii [10]", "result": 44.52, "unit": "%"}, {"measurement": "Toxicity", "setting": "Rattus norvegicus [11]", "result": 0}, {"measurement": "Control", "setting": "Pneumocystis carinii [12]", "result": 0.83, "unit": "%"}, {"measurement": "Toxicity", "setting": "Rattus norvegicus [13]", "result": 0}]}, {"smiles": "Cc1oc(=O)oc1COC(=O)NC(=N)c1ccc(-c2ccc(-c3ccc(C(=N)NC(=O)OCc4oc(=O)oc4C)cc3)o2)cc1", "values": [{"measurement": "Toxicity", "setting": "Rattus norvegicus [1]", "result": 0}, {"measurement": "Toxicity", "setting": "Rattus norvegicus [2]", "result": 0}, {"measurement": "Control", "setting": "Pneumocystis carinii [3]", "result": 0.02, "unit": "%"}, {"measurement": "Control", "setting": "Pneumocystis carinii [4]", "result": 18.73, "unit": "%"}]}]}
